Measured values: patent US12570657B2, “Mesylate salts of heterocyclic cytokinins, compositions containing these derivatives and use thereof” (UNIVERZITA PALACKEHO V OLOMOUCI, priority 2020, dated 2026)
Like-named read-outs stand apart in the source and are kept apart here.

How the values were obtained:
[1] = system: MCF-7 (breast adenocarcinoma); test: In vitro cytotoxicity, Calcein AM assay, MCF7; format: cell-based; conditions: 3-day Calcein-AM assay
Text: (§1) Because toxic compounds adversely affect cell metabolic processes, many standard cytotoxicity assays are based on measuring the rate of metabolism of various artificial substrates. The resulting product is then quantified, for example, by spectrometry. Assays can be easily modified for use in 96-well plates, A microtiter assay based on the quantification of Calcein AM metabolism was used to evaluate the cytotoxicity of cytokinins, for example meta-topolin, ortho-topolin, kinetin, BAP or its mesylate salts, but also a number of other cytokinin mesylate derivatives according to the invention. The test is widely used in drug screening programs and in chemosensitivity testing. In living cells, Calcein AM is enzymatically hydrolyzed and the accumulation of the resulting calcein is manifested by green fluorescence. […] These cells were maintained in standard DMEM or RPMI medium (Sigma, MO, USA) supplemented with heat-inactivated fetal bovine serum (10%) with 2 mM L-glutamine and penicillin-streptomycin (1%) under standard cell culture conditions (37° C., 5% CO2 in a humid environment) and subcultured two or three times a week using a standard trypsinization procedure. Approximately 10,000 cells in 80 μl of medium were seeded in a 96-well microtiter plate. After 12 hours of incubation, the compounds to be tested were added in 20 μl aliquots. Control cultures were treated with DMSO alone. […] After 72 hours of incubation, Calcein AM solution (Molecular Probes) was added to a final concentration of 1 μg/ml and the cells were incubated for another hour.
(§2) Cytoxicity of compounds was tested on panel of cell lines of different histogenetic and species origin.

HOS (human osteosarcoma) = test: In vitro cytotoxicity, Calcein AM assay, HOS; format: cell-based; conditions: Homo sapiens, 72 h, 3-day Calcein-AM assay
Text: as §1, §2

[2] = system: K562 (chronic myeloid leukemia); test: In vitro cytotoxicity, Calcein AM assay, K-562; format: cell-based; conditions: 3-day Calcein-AM assay
Text: as §1, §2

[3] = system: cytokinin-dependent tobacco callus; test: Tobacco callus biotest (stimulation of plant cell division); format: cell-based, Nicotiana tabacum L. cv. Wisconsin 38; conditions: for activity (%) [10^−5 mol · l^−1 BAP = 100%]: callus growth at concentration with highest activity, 10^−5 M BAP = 100%
Protocol: Stimulation effect of the cytokinin mesylates was tested in tobacco callus biotest using cytokinin dependent tobacco callus. Cytokinin-dependent tobacco callus Nicotiana tabacum L. cv. […] Subcultivation was carried out every three weeks. Fourteen days before the bioassay, the callus tissue was transferred to the media without BAP. Biological activity was determined from the increase in fresh callus weight after four weeks of cultivation. Five replicates were prepared for each cytokinin concentration and the entire test was repeated twice. […] Relative activity of the compound at this concentration was calculated (Tab. 15). The activity obtained for 10^−5 M 6-benzylaminopurine (BAP) was postulated as 100%. The cytokinin bases to be tested were dissolved in dimethylsulfoxide (DMSO) and the solution brought up to 10^−3 M with distilled water. The mesylate salts were dissolved directly in distilled water.

[4] = system: HL-60 (promyelocytic, leukemia); test: In vitro cytotoxicity, Calcein AM assay, HL60; format: cell-based; conditions: 3-day Calcein-AM assay
Text: as §1, §2

[5] = system: winter wheat leaf segments; test: Senescence bioassay: retention of chlorophyll in excised winter wheat leaf tips; format: in vivo, Triticum aestivum cv. Hereward; conditions: for activity (%) [10^−4 mol · l^−1 BAP = 100%]: chlorophyll retention at concentration with highest activity, 10^−4 M BAP = 100%
Protocol: Seeds of winter wheat, Triticum aestivum cv. Hereward, were washed under running water for 24 hours and then sown on vermiculite soaked with Knop's solution. They were placed in a growth chamber at 25° C. with a 16/8 h light/dark period at 50 μmol·m^−2·s^−1. After 7 days, the first leaf was fully developed and the second leaf had started to grow. A tip section of the first leaf, approximately 35 mm long, was removed from 5 seedlings and trimmed slightly to a combined weight of 100 mg. The basal ends of the five leaf tips were placed in the wells of a microtiter polystyrene plate containing 150 μl of each tested compound solution. The entire plate was inserted into a plastic box lined with paper tissues soaked in distilled water to prevent leaf sections from drying out. After 96 h incubation in the dark at 25° C., the leaves were removed and chlorophyll extracted by heating at 80° C. for 10 min in 5 ml of 80% ethanol (v/v). The sample volume was then restored to 5 ml by the addition of 80% ethanol (v/v). The absorbance of the extract was recorded at 665 nm. In addition, chlorophyll extracts from fresh leaves and leaf tips incubated in deionised water were measured. […] Relative activity of the compound at this concentration was calculated (Tab. 3). The activity obtained for 10^−4 M 6-benzylaminopurine (BAP) was postulated as 100%. The values shown are means of five replicates and the whole experiment was repeated twice. The tested cytokinin bases were dissolved in dimethylsulfoxide (DMSO) and the solution brought up to 10^−3 M with distilled water. Cytokinin mesylate salts which are more water-soluble (BAP mesylate, meta-topolin mesylate and kinetin mesylate) could be directly dissolved to form a 10^−3 M solution in distilled water.

[6] = system: CEM (T-lymphoblastic leukemia); test: In vitro cytotoxicity, Calcein AM assay, CEM; format: cell-based; conditions: 3-day Calcein-AM assay
Text: as §1, §2

rose explants = test: In vitro and post vitro multiplication and rooting of rose; format: in vivo, Rosa multiflora
Protocol: The aim of this experiment was to test whether the new compounds are of practical use in tissue culture practice. The multiplication rate was investigated and the post vitro effects on rooting were examined Rosa hybrida (pot rose cultivar) was cultured in 350 ml vessels with a screw on polycarbonate lid. Each culture vessel contained 100 ml autoclaved medium (120° C., 20 min). The cultures were maintained at 23±2° C. under a 16 h photoperiod at 40 μM·m^−2 s^−1 PAR. The basal medium (BMR) contained Murashige and Skoog (1962) macroelements, microelements and vitamins, 95 μM NaFeEDTA, 555 μM myo-inositol, 111 mM sucrose, 1.332 mM glycine, 684 μM L-glutamine and 7 g/l agar. This medium was supplemented with 10 μM BAP, mT, or 3MeOBAP, or the corresponding mesylate salts. The control medium didn't contain any cytokinin After a culture period of 8 weeks, the number of induced shoots per explant was determined, as well as root number/explant and total root length/explant. The roots were removed and the explants (shoot clusters) were planted in unfertilised peat. After four weeks of acclimatising in a fog unit, root number and root length was determined. As expected, a cytokinin free medium yielded almost no new shoots. The original shoot explant grew out as a good quality single shoot that rooted very well. […] Explants growing on cytokininin mesylates were characterized by a high multiplication index (a large number of new shoots) and were more rooted in comparison with free bases. The use of cytokinin mesylates led to an increase in all monitored parameters in plant culture compared to free cytokinin bases.

[7] = Aqueous solubility: concentration of saturated solution by HPLC; format: physicochemical; conditions: thermodynamic from solid; saturated solution in water, cytokinin mesylate; read-out: c of CK mesylate
Protocol: Aqueous solubility was measured using the following protocol. Supersaturated solution of meta-topolin mesylate salt was prepared. The solutions were filtered off from visible undissolved particles of the salt to obtain homogenic saturated solution. Saturated solution was diluted 1:10 000 and measured using HPLC Alliance Waters 2690 with C18 Symmetry column with the diameter 2.1 mm and 150 mm length with a porosity of 5 μm. The sample was dissolved in the mobile phase (MeOH: HCOONH4-1:9). The sample was washed with a methanol gradient (10-90%, 35 min) at pH 4 and a flow rate of 0.3 ml/min. The absorbances of the components were detected in the UV region at 210-400 nm. The peak area of meta-topolin mesylate salt was 595 027. The standard was measured as shown in the Table 9 below, Obtained peak area was compared to area peaks measured at certain concentration and the final concentration of saturated solution was determined
Solubility of other cytokinin (CK) mesylates was also determined by this method and the concentrations of saturated solutions are given below in Table 10: […]

keratinocytes HaCaT = test: Cytotoxicity for non-cancer cells, resazurine reduction assay, HaCaT
Protocol: (§3) It is used for viability testing of both bacterial and eukaryotic cells. […] Cultivation medium was DMEM with 10% FBS. Before the experiment, the cells were subcultured for 2 weeks. For the cytotoxicity evaluation, the cells were trypsinized and pipetted into 96 well plates (5000 cells per well in 80 microliters). After 24 hours, 5× concentrated solutions of the tested compounds in the medium were added. […] IC50 values were calculated from dose response curves using drc library for R programming environment.

[8] = system: retinal epitelium cells ARPE-19; test: Cytotoxicity for non-cancer cells, resazurine reduction assay, ARPE-19
Protocol: as §3

skin fibroblasts BJ = test: Cytotoxicity for non-cancer cells, resazurine reduction assay, BJ
Protocol: as §3

[9] = Ex vitro, after four weeks of acclimatising in peat
[10] = In vitro, 10 μM cytokinin, 8 weeks
[11] = resazurin, 72 hour treatment, HaCaT
[12] = resazurin, 72 hour treatment, ARPE-19
[13] = resazurin, 72 hour treatment, BJ

Compound	IC50 ([1]; Homo sapiens, MCF7, 72 h)	IC50 ([2]; Homo sapiens, K562, 72 h)	activity (%) [10^−5 mol · l^−1 BAP = 100%] [3]	activity (%) [10^−4 mol · l^−1 BAP = 100%] [5]	IC50 ([6]; 72 h)	solubility thermodynamic [7]	Cytotoxicity for Fibroblasts (GI20) HaCaT (keratinocytes HaCaT; [11])	Cytotoxicity for Fibroblasts (GI20) ARPE-19 [8, 12]	IC50 [1]	IC50 [6]	other results
CC(CO)CCNc1ncnc2nc[nH]c12 (racemic) [Dihydrozeatin (DHZ), dihydrozeatin]	> 167 µM	> 167 µM	78%	81%	> 167 µM	–	–	–	–	–	IC50 (HOS (human osteosarcoma)): > 167 µM; IC50 ([4]; Homo sapiens, HL-60, 72 h): > 167 µM
COc1ccccc1CNc1ncnc2nc[nH]c12 [2MeOBAP, 6-(2-methoxybenzylamino)purine]	153 µM	116 µM	79%	–	63.4 µM	–	–	–	–	–	IC50 (HOS (human osteosarcoma)): > 167 µM; IC50 ([4]; Homo sapiens, HL-60, 72 h): > 167 µM
COc1cccc(CNc2ncnc3nc[nH]c23)c1.CS(=O)(=O)O [3MeOBAP mesylate, 6-(3-methoxybenzylamino)purine mesylate]	–	–	83%	–	–	47.5 mM	–	–	–	–	Number of roots per plant (rose explants; [9]): 1.9; Overall length of plant (cm) (rose explants; [9]): 4.5 cm; Number of new shoots per explant (rose explants; [10]): 4.5; Number of roots per explant (rose explants; [10]): 0.0; Overall length of explant (cm) (rose explants; [10]): 0.0 cm; number of flowers per explant (rose explants; [10]): 0.02; activity (%) [10^−4 mol · l^−1 BAP = 100%] ([5]; listed as 3-MeoBAP mesylate, mesylate): 125%; activity (%) [10^−4 mol · l^−1 BAP = 100%] ([5]; mesylate): 184%
CS(=O)(=O)O.c1coc(CNc2ncnc3nc[nH]c23)c1 [Kinetin mesylate, 6-furfurylaminopurine mesylate]	> 167 µM	> 167 µM	–	110.9%	> 167 µM	92.6 mM	>100 µM	>100 μM	–	–	Cytotoxicity for Fibroblasts (GI20) BJ (skin fibroblasts BJ; human, 72 h): >100 µM
CC(C)=CCNc1ncnc2[nH]cnc12.CS(=O)(=O)O [iP mesylate, N-3-(Methylbut-2-En-1-Yl)-9H-Purin-6-Amin Methanesulphonate]	–	–	95%	95%	–	–	–	–	> 167 µM	128 µM	Cytotoxicity for Fibroblasts (GI20) HaCaT (keratinocytes HaCaT): >100 µM; IC50 [2]: 162 µM; concentration with highest activity ([3]; tobacco callus fresh weight increase, four weeks): 10^−6 mol · l^−1; Cytotoxicity for Fibroblasts (GI20) ARPE-19 [8]: >100 μM; concentration with highest activity ([5]; chlorophyll retention, excised wheat leaf tips, 96 h dark): 10^−4 mol · l^−1; Cytotoxicity for Fibroblasts (GI20) BJ (skin fibroblasts BJ): 149.3 µM
CS(=O)(=O)O.Oc1ccccc1CNc1ncnc2nc[nH]c12 [oT mesylate, 6-(2-hydroxybenzylamino)purine mesylate]	–	–	87%	69%	–	82.3 mM	>100 µM	>100 μM	–	–	IC50 ([6]; mesylate): 89.4 µM; Cytotoxicity for Fibroblasts (GI20) BJ (skin fibroblasts BJ; human, 72 h): >100 µM
C/C(=C\CNc1ncnc2[nH]cnc12)CO.CS(=O)(=O)O [tZ mesylate, (E)-4-(9H-Purin-6-Ylamino)-2-Methybut-2-En-1-ol)Methanesulphonate]	–	–	111%	114%	–	–	>100 µM	>100 μM	> 167 µM	> 167 µM	IC50 [4]: > 167 µM; Cytotoxicity for Fibroblasts (GI20) BJ (skin fibroblasts BJ; [13]): >100 µM
C/C(=C\CNc1ncnc2nc[nH]c12)CO [trans-zeatin (tZ), trans-zeatin]	–	–	109%	110%	–	–	>100 µM	>100 μM	> 167 µM	> 167 µM	IC50 [4]: > 167 µM; Cytotoxicity for Fibroblasts (GI20) BJ (skin fibroblasts BJ; [13]): >100 µM
